SMILES strings stand for the structures. pIC50: −log10 of the molar value.

For orientation: pIC50 means the negative decadic logarithm of the IC50, by convention in mol/L.

Chain of Recombinant human KRAS protein containing the G12C amino acid substitution (P01116 other isoform, or with tags, fused parts or gaps G12C): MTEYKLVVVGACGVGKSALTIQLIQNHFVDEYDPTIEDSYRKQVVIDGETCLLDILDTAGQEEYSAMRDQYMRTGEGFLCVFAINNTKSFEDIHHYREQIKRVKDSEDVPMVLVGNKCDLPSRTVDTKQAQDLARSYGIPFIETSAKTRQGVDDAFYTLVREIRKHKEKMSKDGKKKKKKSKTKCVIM

This assay deals with Recombinant human KRAS protein containing the G12C amino acid substitution (Homo sapiens (Human), UniProt P01116, G12C). Briefly: HTRF nucleotide exchange assay, KRAS G12C. To be noted: 180 minute incubation with compound at room temperature; at least two independent replicates; read-out: KRAS G12C HTRF NEA IC50. Type of assay: biochemical. The protocol:
The capacity of compounds to bind KRAS G12C and KRAS wildtype was quantified using a HTRF nucleotide exchange assay. Recombinant human KRAS protein (5 nM; aa1-188 KRAS WT or KRAS containing the G12C amino acid substitution, an N-terminal 6×His-tag and leader sequence), and 2 nM Europium-labeled anti-6×His antibody were mixed in assay buffer (10 mM HEPES pH7.3, 75 mM NaCl, 5 mM MgCl2, 0.05% BSA, 0.0025% NP-40 and 100 mM KF) with various concentrations of compound in a 384-well plate and a volume of 5 μL. After a 180 minute incubation at room temperature, 5 μl of 200 nM EDA-GTP-DY647P1 diluted in assay buffer was added to the plate. Following 30-minute incubation at room temperature, time-resolved fluorescence was measured on a PerkinElmer Envision plate reader. DMSO (0.3%) and unlabeled GDP (1 μM) or equivalent tool compound were used to generate the Max and Min assay signals, respectively. Data was analysed using a four-parameter logistic model to calculate IC50 values, with at least two independent replicates were performed for each compound.
(In general: TR-FRET usually uses a lanthanide donor and a delayed reading to cut background.)
Regarding `C=CC(=O)N1CC2(CC(c3nc(-c4ccc5c(c4)OCCN5C)c(-c4c(C)ccc5[nH]ncc45)n3C)C2)C1` [Example 18, 1-[6-[1-methyl-4-(4-methyl-2,3-dihydro-1,4-benzoxazin-7-yl)-5-(5-methyl-1H-indazol-4-yl)imidazol-2-yl]-2-azaspiro[3.3]heptan-2-yl]prop-2-en-1-one], the pIC50 is not below 6.00. For `C=CC(=O)N1CC2(CC(c3nc(-c4cnn(CCN5CCOCC5)c4)c(-c4c(C)ccc5[nH]ncc45)n3C)C2)C1` [Example 10, 1-[6-[1-methyl-5-(5-methyl-1H-indazol-4-yl)-4-[1-(2-morpholinoethyl)pyrazol-4-yl]imidazol-2-yl]-2-azaspiro[3.3]heptan-2-yl]prop-2-en-1-one] the value was not above 5.00; for `C=CC(=O)N1CC2(CC(c3nc(-c4ccc(C(=O)NCCN(C)C)cc4)c(-c4c(C)ccc5[nH]ncc45)n3C)C2)C1` [Example 22, N-[2-(dimethylamino)ethyl]-4-[1-methyl-5-(5-methyl-1H-indazol-4-yl)-2-(2-prop-2-enoyl-2-azaspiro[3.3]heptan-6-yl)imidazol-4-yl]benzamide], 5.00 to 6.00; for `C=CC(=O)N1CC2(CC(c3nc(-c4ccc5c(cnn5C)c4)c(-c4cc(C#N)cc5[nH]ncc45)n3C)C2)C1` [Example 40, 4-[3-methyl-5-(1-methylindazol-5-yl)-2-(2-prop-2-enoyl-2-azaspiro[3.3]heptan-6-yl)imidazol-4-yl]-1H-indazole-6-carbonitrile], 5.00 to 6.00. For `C=CC(=O)N1CC2(CC(c3nc(-c4ccc5c(c4)c(C)nn5C)c(-c4c(C)ccc5[nH]ncc45)n3C)C2)C1` [Example 16, 1-[6-[4-(1,3-dimethylindazol-5-yl)-1-methyl-5-(5-methyl-1H-indazol-4-yl)imidazol-2-yl]-2-azaspiro[3.3]heptan-2-yl]prop-2-en-1-one], the negative logarithm of the IC50 (pIC50) is 5.00 to 6.00.

`C=CC(=O)N1CC2(CC(c3nc(-c4c(C)ccc5[nH]ncc45)c(-c4ccc5c(cnn5C)c4)n3C)C2)C1` [Example 25, 1-[6-[1-methyl-5-(1-methylindazol-5-yl)-4-(5-methyl-1H-indazol-4-yl)imidazol-2-yl]-2-azaspiro[3.3]heptan-2-yl]prop-2-en-1-one]: the negative logarithm of the IC50 (pIC50) was not above 5.00. Regarding `C=CC(=O)N1CC2(CC(c3nc(-c4ccc(C(=O)NCC(F)(F)F)c(OC)c4)c(-c4c(C)ccc5[nH]ncc45)n3C)C2)C1` [Example 23, 2-methoxy-4-[1-methyl-5-(5-methyl-1H-indazol-4-yl)-2-(2-prop-2-enoyl-2-azaspiro[3.3]heptan-6-yl)95midazole-4-yl]-N-(2,2,2-trifluoroethyl)benzamide], the pIC50 is 5.00 to 6.00. With `C=CC(=O)N1CC2(CC(c3nc(-c4ccc5nn(C)cc5c4)c(-c4c(C)ccc5[nH]ncc45)n3C)C2)C1` [Example 14, 1-[6-[1-methyl-4-(2-methylindazol-5-yl)-5-(5-methyl-1H-indazol-4-yl)imidazol-2-yl]-2-azaspiro[3.3]heptan-2-yl]prop-2-en-1-one], the pIC50 is not below 6.00.

For `C=CC(=O)N1CC2(CC(c3nc(-c4ccc5c(cnn5C)c4)c(-c4cc(O)cc5ccccc45)n3C)C2)C1` [Example 26, 1-[6-[5-(3-hydroxy-1-naphthyl)-1-methyl-4-(1-methylindazol-5-yl)imidazol-2-yl]-2-azaspiro[3.3]heptan-2-yl]prop-2-en-1-one], the pIC50 was not below 6.00. Consider `C=CC(=O)N1CC2(CC(c3nc(-c4ccc(OC)cc4F)c(-c4c(C)ccc5[nH]ncc45)n3C)C2)C1` [Example 4, 1-[6-[4-(2-fluoro-4-methoxy-phenyl)-1-methyl-5-(5-methyl-1H-indazol-4-yl)imidazol-2-yl]-2-azaspiro[3.3]heptan-2-yl]prop-2-en-1-one], for which the negative-log IC50 (pIC50) was 5.00 to 6.00.

In the case of `C=CC(=O)N1CC2(CC(c3nc(-c4ccc(CN5CCOCC5)cc4)c(-c4cc(O)cc5ccccc45)n3C)C2)C1` [Example 30, 1-[6-[5-(3-hydroxy-1-naphthyl)-1-methyl-4-[4-(morpholinomethyl)phenyl]imidazol-2-yl]-2-azaspiro[3.3]heptan-2-yl]prop-2-en-1-one], the negative-log IC50 (pIC50) is not below 6.00. On to `C=CC(=O)N1CC2(CC(c3nc(-c4cnn(CCOC)c4)c(-c4c(C)ccc5[nH]ncc45)n3C)C2)C1` [Example 15, 1-[6-[4-[1-(2-methoxyethyl)pyrazol-4-yl]-1-methyl-5-(5-methyl-1H-indazol-4-yl)imidazol-2-yl]-2-azaspiro[3.3]heptan-2-yl]prop-2-en-1-one], for which the negative-log IC50 (pIC50) is not above 5.00. Turning to `C=CC(=O)N1CC2(CC(c3nc(-c4ccc(N5CCOCC5)cc4)c(-c4c(C)ccc5[nH]ncc45)n3C)C2)C1` [Example 5, 1-[6-[1-methyl-5-(5-methyl-1H-indazol-4-yl)-4-(4-morpholinophenyl)imidazol-2-yl]-2-azaspiro[3.3]heptan-2-yl]prop-2-en-1-one], the pIC50 is not below 6.00. Regarding `C=CC(=O)N1CC2(CC(c3nc(-c4ccc5c(c4)nc(C)n5C)c(-c4c(C)ccc5[nH]ncc45)n3C)C2)C1` [Example 9, 1-[6-[4-(1,2-dimethylbenzimidazol-5-yl)-1-methyl-5-(5-methyl-1H-indazol-4-yl)imidazol-2-yl]-2-azaspiro[3.3]heptan-2-yl]prop-2-en-1-one], the negative-log IC50 (pIC50) was 5.00 to 6.00. In the case of `C=CC(=O)N1CC2(CC(c3nc(-c4ccc(OCC(=O)N(C)C)cc4)c(-c4c(C)ccc5[nH]ncc45)n3C)C2)C1` [Example 19, N,N-dimethyl-2-[4-[1-methyl-5-(5-methyl-1H-indazol-4-yl)-2-(2-prop-2-enoyl-2-azaspiro[3.3]heptan-6-yl)imidazol-4-yl]phenoxy]acetamide], the pIC50 was 5.00 to 6.00. In the case of `C=CC(=O)N1CC2(CC(c3nc(-c4ccc5c(cnn5C)c4)c(-c4cc(Cl)cc5[nH]ncc45)n3C)C2)C1` [Example 41, 1-[6-[5-(6-chloro-1H-indazol-4-yl)-1-methyl-4-(1-methylindazol-5-yl)imidazol-2-yl]-2-azaspiro[3.3]heptan-2-yl]prop-2-en-1-one] it was not below 6.00; in that of `C=CC(=O)N1CC2(CC(c3nc(-c4ccc5cnn(C)c5c4)c(-c4c(C)ccc5[nH]ncc45)n3C)C2)C1` [Example 7, 1-[6-[1-methyl-4-(1-methylindazol-6-yl)-5-(5-methyl-1H-indazol-4-yl)imidazol-2-yl]-2-azaspiro[3.3]heptan-2-yl]prop-2-en-1-one], 5.00 to 6.00; in that of `C=CC(=O)N1CC2(CC(c3nc(-c4ccc5ocnc5c4)c(-c4c(C)ccc5[nH]ncc45)n3C)C2)C1` [Example 17, 1-[6-[4-(1,3-benzoxazol-5-yl)-1-methyl-5-(5-methyl-1H-indazol-4-yl)imidazol-2-yl]-2-azaspiro[3.3]heptan-2-yl]prop-2-en-1-one], 5.00 to 6.00. Regarding `C=CC(=O)N1CC2(CC(c3nc(-c4ccc(OCC(=O)N5CCOCC5)cc4)c(-c4c(C)ccc5[nH]ncc45)n3C)C2)C1` [Example 20, 1-[6-[1-methyl-5-(5-methyl-1H-indazol-4-yl)-4-[4-(2-morpholino-2-oxo-ethoxy)phenyl]imidazol-2-yl]-2-azaspiro[3.3]heptan-2-yl]prop-2-en-1-one], the pIC50 was 5.00 to 6.00. For `C=CC(=O)N1CC2(CC(c3nc(-c4ccc5c(cnn5C)c4)c(-c4cc(O)cc5ccccc45)n3CC)C2)C1` [Example 32, 1-[6-[1-ethyl-5-(3-hydroxy-1-naphthyl)-4-(1-methylindazol-5-yl)imidazol-2-yl]-2-azaspiro[3.3]heptan-2-yl]prop-2-en-1-one] the value was not below 6.00.

Consider `C=CC(=O)N1CC2(CC(c3nc(-c4ccc5c(cnn5C)c4)c(-c4c(C)ccc5[nH]ncc45)n3CC)C2)C1` [Example 24, 1-[6-[1-ethyl-4-(1-methylindazol-5-yl)-5-(5-methyl-1H-indazol-4-yl)imidazol-2-yl]-2-azaspiro[3.3]heptan-2-yl]prop-2-en-1-one], for which the pIC50 was not below 6.00.

`C=CC(=O)N1CC2(CC(c3nc(-c4ccc5c(cnn5C)c4C)c(-c4c(C)ccc5[nH]ncc45)n3C)C2)C1` [Example 11, 1-[6-[4-(1,4-dimethylindazol-5-yl)-1-methyl-5-(5-methyl-1H-indazol-4-yl)imidazol-2-yl]-2-azaspiro[3.3]heptan-2-yl]prop-2-en-1-one]: the pIC50 was 5.00 to 6.00.

Turning to `C=CC(=O)N1CC2(CC(c3nc(-c4ccc5c(cnn5C)c4)c(-c4c(C)ccc5[nH]ncc45)n3C)C2)C1` [Example 1, 1-[6-[1-methyl-4-(1-methylindazol-5-yl)-5-(5-methyl-1H-indazol-4-yl)imidazol-2-yl]-2-azaspiro[3.3]heptan-2-yl]prop-2-en-1-one], the pIC50 is not below 6.00.

For `C=CC(=O)N1CC2(CC(c3nc(-c4ccc(-n5cnc(C6CC6)c5)cc4)c(-c4c(C)ccc5[nH]ncc45)n3C)C2)C1` [Example 8, 1-[6-[4-[4-(4-cyclopropylimidazol-1-yl)phenyl]-1-methyl-5-(5-methyl-1H-indazol-4-yl)imidazol-2-yl]-2-azaspiro[3.3]heptan-2-yl]prop-2-en-1-one], the negative-log IC50 (pIC50) is 5.00 to 6.00. As to `C=CC(=O)N1CC2(CC(c3nc(-c4ccc(CN5CCN(C)CC5)cc4)c(-c4cc(O)cc5ccccc45)n3C)C2)C1` [Example 31, 1-[6-[5-(3-hydroxy-1-naphthyl)-1-methyl-4-[4-[(4-methylpiperazin-1-yl)methyl]phenyl]imidazol-2-yl]-2-azaspiro[3.3]heptan-2-yl]prop-2-en-1-one], the pIC50 is not below 6.00.
